IC50 data for 19 compounds are collected here from patent publication US20230192691A1, “HETEROCYCLIC COMPOUNDS AS BTK INHIBITORS” (Beijing InnoCare Pharma Tech Co., Ltd., priority 2020, published 2023).

Experiment [1] concerns the target T1, human-derived recombinant BTK protein (Homo sapiens, UniProt Q06187).
T1 construct: purchased Carna Biosciences 08-180
In words: BTK activity inhibition assay (HTRF in vitro kinase assay). The experiment is classed as biochemical. The note with it: 40 μM ATP, 0.2 ng/μL BTK. Here is the method:
In vitro kinase assay was used to evaluate the effects of compounds of the present invention on BTK activity (Table 1).
(§1) By using the homogeneous time-resolved fluorescence (HTRF) kinase detection kit (Cisbio, catalog number 62TK0PEC), the enzymatic activity of BTK is determined by detecting the phosphorylation level of the substrate in the kinase reaction. The reaction buffer contains the enzyme reaction buffer (1×) from the kit, 5 mM MgCl2, 1 mM DTT, 10 nM SEB and 0.01% Tween-20; the kinase reaction solution contains human-derived recombinant BTK protein (Carna Biosciences, Catalog No. 08-180) diluted to 0.2 ng/μL with the reaction buffer; the substrate reaction solution contains biotin-labeled tyrosine kinase substrate diluted to 0.5 μM with the reaction buffer and 40 μM ATP; the detection buffer contains Eu^3+-labeled cage antibody diluted to 0.05 ng/μL and streptavidin-labeled XL665 antibody diluted to 31.25 nM with the reaction buffer; the test compound is dissolved and diluted to 100 μM with DMSO, followed by a 4-fold serial dilution with DMSO to the lowest concentration of 6.1 nM and finally 40-time dilution with the reaction buffer for each concentration point. If the IC50 value of the compound is very low, the initial concentration of the compound is reduced.
(§2) Add 4 μL test compound solution and 2 μL kinase reaction solution to a 384-well detection plate (Corning, catalog number 3674), mix well and incubate at room temperature for 15 minutes; add 4 μL substrate reaction solution and incubate for 50 minutes; add 10 μL detection buffer, mix well and stand for 60 minutes; detect signal at 620 nm and 665 nm using an Envision plate reader (Perkin Elmer). The signal value (absorbance at 665 nm/absorbance at 620 nm) is positively correlated with the degree of phosphorylation of the substrate, thereby detecting the kinase activity of BTK. In this experiment, the group without BTK is the negative control (100% inhibition) and the group with BTK but no compound is the positive control (0% inhibition). The inhibition curve is plotted and the corresponding IC50 value of the test compound is calculated using XLfit software (ID Business Solutions Ltd., UK).
(Time-resolved FRET reads energy transfer from a long-lived donor to a nearby acceptor.)

Experiment [2] deals with T2, human recombinant BTK C481S protein (Homo sapiens, UniProt Q06187, C481S).
T2 construct: made in house
T2 sequence (Q06187 whole entry C481S): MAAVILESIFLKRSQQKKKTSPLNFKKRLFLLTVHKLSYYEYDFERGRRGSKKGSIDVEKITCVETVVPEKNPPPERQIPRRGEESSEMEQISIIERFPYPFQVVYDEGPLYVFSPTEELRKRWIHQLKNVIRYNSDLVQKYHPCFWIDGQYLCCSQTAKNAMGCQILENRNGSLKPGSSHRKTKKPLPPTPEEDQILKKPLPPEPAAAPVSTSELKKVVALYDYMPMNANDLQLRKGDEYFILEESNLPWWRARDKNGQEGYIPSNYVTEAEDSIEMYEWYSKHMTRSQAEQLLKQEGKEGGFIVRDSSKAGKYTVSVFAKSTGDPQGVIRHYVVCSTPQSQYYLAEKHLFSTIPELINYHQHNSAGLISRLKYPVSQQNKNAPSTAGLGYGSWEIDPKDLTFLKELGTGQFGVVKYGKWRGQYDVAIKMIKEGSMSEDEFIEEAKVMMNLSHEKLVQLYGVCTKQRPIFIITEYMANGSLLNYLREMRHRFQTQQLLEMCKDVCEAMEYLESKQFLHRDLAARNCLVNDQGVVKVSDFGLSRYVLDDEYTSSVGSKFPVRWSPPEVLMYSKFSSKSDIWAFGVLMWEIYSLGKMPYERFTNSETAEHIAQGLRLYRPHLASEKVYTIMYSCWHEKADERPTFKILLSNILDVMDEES
In words: BTK C481S activity inhibition assay (HTRF in vitro kinase assay). The note with it: 35 μM ATP, 1.5 ng/μL BTK C481S. It counts as biochemical. As for the experimental part: In vitro kinase assay was used to evaluate the effects of compounds of the present invention on BTK C481S activity (Table 1).
as §1, with “BTK C481S” for “BTK”, “nM SEB,” for “nM SEB”, “contains human” for “contains human-derived”, “protein (purified in-house)” for “protein (Carna Biosciences, Catalog No. 08-180)”, “to 1.5” for “to 0.2”, “and 35” for “and 40”
as §2, with “activity of BTK C481S. In this” for “activity of BTK. In this”, “with BTK C481 S but no” for “with BTK but no”, “XLfit software (TD Business Solutions” for “XLfit software (ID Business Solutions”

T1 sequence (Q06187 whole entry): as the sequence (Q06187 whole entry C481S) above, with S481C counted along it

In general, IC50 refers to the concentration needed to halve the response being measured. Turning to `COc1ccc(F)cc1C(=O)NCc1ccc(-c2nc(N3CCC(CO)CC3)n3ccnc(N)c23)cc1` [Compound 6, N-(4-(8-amino-3-(4-(hydroxymethyl)piperidin-1-yl)imidazo[1,5-a]pyrazin-1-yl)benzyl)-5-fluoro-2-methoxybenzamide], the IC50 was 4.6 nM in experiment [1] and 3.3 nM in experiment [2].

Turning to `COc1ccc(F)cc1C(=O)NCc1ccc(-c2nc([C@@H]3CCNC3)n3ncnc(N)c23)cc1` [Compound 22, (R)-N-(4-(4-amino-7-(pyrrolidin-3-yl)imidazo[5,1-f][1,2,4]triazin-5-yl)benzyl)-5-fluoro-2-methoxybenzamide], the half-inhibitory concentration (IC50) in experiment [1] stood at 155 nM; in experiment [2], 36 nM.

In the case of `COc1ccc(F)cc1C(=O)NCc1ccc(-c2nc([C@@H]3CCN(C(=O)C4CC4)C3)n3ncnc(N)c23)cc1` [Compound 24, (R)-N-(4-(4-amino-7-(1-(cyclopropanecarbonyl)pyrrolidin-3-yl)imidazo[5,1-f][1,2,4]triazin-5-yl)benzyl)-5-fluoro-2-methoxybenzamide], the concentration for half-maximal inhibition (IC50) came out at 3.9 nM in experiment [1] and 2.5 nM in experiment [2].

`COc1ccc(F)cc1C(=O)NCc1ccc(-c2nc([C@H]3CC[C@H](CN)CC3)n3ccnc(N)c23)cc1` [Compound 7, N-(4-(8-amino-3-((1r,4r)-4-(aminomethyl)cyclohexyl)imidazo[1,5-a]pyrazin-1-yl)benzyl)-5-fluoro-2-methoxybenzamide]: the results for the IC50 in experiment [1] and in experiment [2] were 3.4 nM and 1.7 nM, respectively.

For `COc1ccc(F)cc1C(=O)NCc1ccc(-n2c(=O)n(C34CCC(C(=O)O)(CC3)CC4)c3ncnc(N)c32)cc1` [Compound 48, 4-(6-amino-7-(4-((5-fluoro-2-methoxybenzamido)methyl)phenyl)-8-oxo-7,8-dihydro-9H-purin-9-yl)bicyclo[2.2.2]octane-1-carboxylic acid], the results for the IC50 in experiment [1] and in experiment [2] were 1.2 nM and 8.2 nM, respectively.

Take `COc1ccc(F)cc1C(=O)NCc1ccc(-c2nc(C3CCCOC3)n3ncnc(N)c23)cc1` (centres unmarked) [Compound 16, N-(4-(4-amino-7-(tetrahydro-2H-pyran-3-yl)imidazo[5,1-f][1,2,4]triazin-5-yl)benzyl)-5-fluoro-2-methoxybenzamide]: the IC50 in experiment [1] came to 1.8 nM; in experiment [2] it was 1.1 nM.

As for `[2H]C([2H])([2H])Oc1ccc(F)cc1C(=O)NCc1ccc(-c2nc([C@H]3CC[C@H](CO)CC3)n3ncnc(N)c23)cc1` [Compound 18, N-(4-(4-amino-7-((1r,4r)-4-(hydroxymethyl)cyclohexyl)imidazo[5,1-f][1,2,4]triazin-5-yl)benzyl)-5-fluoro-2-(methoxy-d3)benzamide], the figures for the IC50 in experiment [1] and in experiment [2] were 0.7 nM and 0.8 nM, respectively.

`COc1ccccc1C(=O)NCc1ccc(-c2nc(C3CCC(CO)OC3)n3ccnc(N)c23)cc1` (centres unmarked) [Compound 10, N-(4-(8-amino-3-(6-(hydroxymethyl)tetrahydro-2H-pyran-3-yl)imidazo[1,5-a]pyrazin-1-yl)benzyl)-2-methoxybenzamide]: the IC50 in experiment [1] is 14 nM; in experiment [2] it was 3.6 nM.

In the case of `COC(=O)C12CCC(c3nc(-c4ccc(CNC(=O)c5cc(F)ccc5OC)cc4)c4c(N)nccn34)(CC1)CC2` [Compound 33, methyl 4-(8-amino-1-(4-((5-fluoro-2-methoxybenzamido)methyl)phenyl)imidazo[1,5-a]pyrazin-3-yl)bicyclo[2.2.2]octane-1-carboxylate], the IC50 in experiment [1] came out at 0.8 nM; in experiment [2] it was 1.8 nM.

Take `COc1ccc(F)cc1C(=O)NCc1ccc(-c2nn(C3CCOCC3)c3ccnc(N)c23)cc1` [Compound 1, N-(4-(4-amino-1-(tetrahydro-2H-pyran-4-yl)-1H-pyrazolo[4,3-c]pyridin-3-yl)benzyl)-5-fluoro-2-methoxybenzamide]: the results for the IC50 in experiment [1] and in experiment [2] were 17 nM and 3.5 nM, respectively.

In the case of `COc1ccc(F)cc1C(=O)NCc1ccc(-c2nc(C3(C(F)(F)F)CC3)n3ncnc(N)c23)cc1` [Compound 43, N-(4-(4-amino-7-(1-(trifluoromethyl)cyclopropyl)imidazo[5,1-f][1,2,4]triazin-5-yl)benzyl)-5-fluoro-2-methoxybenzamide], the IC50 in experiment [1] amounted to 2.7 nM; in experiment [2], 5.4 nM.

With `COc1ccc(F)cc1C(=O)NCc1ccc(-c2nn(C3CCC(CO)CC3)c3ccnc(N)c23)cc1` (centres unmarked) [Compound 2, N-(4-(4-amino-1-(4-(hydroxymethyl)cyclohexyl)-1H-pyrazolo[4,3-c]pyridin-3-yl)benzyl)-5-fluoro-2-methoxybenzamide], the figures for the IC50 in experiment [1] and in experiment [2] were 1.7 nM and 2.5 nM, respectively.

Consider `COc1ccc(F)cc1C(=O)NCc1ccc(-n2c(=O)n([C@H]3CC[C@H](CO)CC3)c3ncnc(N)c32)cc1` [Compound 50, N-(4-(6-amino-9-((1r,4r)-4-(hydroxymethyl)cyclohexyl)-8-oxo-8,9-dihydro-7H-purin-7-yl)benzyl)-5-fluoro-2-methoxybenzamide], for which the half-inhibitory concentration (IC50) in experiment [1] is 2.4 nM; in experiment [2] it was 20 nM.

Turning to `COc1ccc(F)cc1C(=O)NCc1ccc(-c2nc([C@]3(C)CC[C@](C)(C(=O)O)CC3)n3ccnc(N)c23)cc1` [Compound 41, (1s,4s)-4-(8-amino-1-(4-((5-fluoro-2-methoxybenzamido)methyl)phenyl)imidazo[1,5-a]pyrazin-3-yl)-1,4-dimethylcyclohexane-1-carboxylic acid], the half-maximal inhibitory concentration (IC50) came to 2.6 nM in experiment [1] and 5.3 nM in experiment [2].

For the compound `COc1ccc(F)cc1C(=O)NCc1ccc(-n2c(=O)n(C3CCOCC3)c3ncnc(N)c32)cc1` [Compound 51, N-(4-(6-amino-8-oxo-9-(tetrahydro-2H-pyran-4-yl)-8,9-dihydro-7H-purin-7-yl)benzyl)-5-fluoro-2-methoxybenzamide], the IC50 in experiment [1] stood at 4 nM; in experiment [2] it was 9.2 nM.

For the compound `Nc1nccn2c(C3CCC(CO)OC3)nc(-c3ccc(CNC(=O)c4ccccn4)cc3)c12` (centres unmarked) [Compound 9, N-(4-(8-amino-3-(6-(hydroxymethyl)tetrahydro-2H-pyran-3-yl)imidazo[1,5-a]pyrazin-1-yl)benzyl)picolinamide], the results for the IC50 in experiment [1] and in experiment [2] were 718 nM and 498 nM, respectively.

With `COc1ccc(F)cc1C(=O)NCc1ccc(-c2nc(C3CCC(CO)OC3)n3ccnc(N)c23)cc1` (centres unmarked) [Compound 8, N-(4-(8-amino-3-(6-(hydroxymethyl)tetrahydro-2H-pyran-3-yl)imidazo[1,5-a]pyrazin-1-yl)benzyl)-5-fluoro-2-methoxybenzamide], the concentration for half-maximal inhibition (IC50) in experiment [1] turned out to be 1.2 nM; in experiment [2], 0.8 nM.

For the compound `COc1ccc(F)cc1C(=O)NCc1ccc(-c2nc(C34CCC(CO)(CC3)CC4)n3ccnc(N)c23)cc1` [Compound 35, N-(4-(8-amino-3-(4-(hydroxymethyl)bicyclo[2.2.2]octan-1-yl)imidazo[1,5-a]pyrazin-1-yl)benzyl)-5-fluoro-2-methoxybenzamide], the IC50 in experiment [1] turned out to be 0.6 nM; in experiment [2], 1.5 nM.

For `COc1ccc(F)cc1C(=O)NCc1ccc(-c2nc([C@]3(C)CC[C@@](C)(C(=O)O)CC3)n3ccnc(N)c23)cc1` [Compound 32, (1r,4r)-4-(8-amino-1-(4-((5-fluoro-2-methoxybenzamido)methyl)phenyl)imidazo[1,5-a]pyrazin-3-yl)-1,4-dimethylcyclohexane-1-carboxylic acid], the IC50 in experiment [1] turned out to be 2.4 nM; in experiment [2] it was 6.3 nM.
